Measured values reported in article PMC10837402, “Unnatural amino acid substitutions to improve in vivo stability and tumor uptake of ^68Ga-labeled GRPR-targeted TacBOMB2 derivatives for cancer imaging with positron emission tomography” (EJNMMI Radiopharmacy and Chemistry, 2024).
Each block holds one compound with its values, some of them ahead of it.

Columns and labels:
GRPR [1] = target: T1, GRPR (Homo sapiens, UniProt P30550); set-up: method as in Wang et al. [2023]; conditions: previously reported; ref Wang et al. [2023]; read-out: GRPR binding affinity (Ki); cited from earlier work
T1 construct: generated using GRPR-expressing PC-3 cells; endogenous in cells; host or cells: PC-3 cells

[2] = system: GRPR-expressing PC-3 tumor xenografts; conditions: mouse, in vivo, 1 h; cited from earlier work
GRPR [3] = target: T1, GRPR; experiment: Fluorometric calcium release assay in PC-3 cells; assay type: cell-based; conditions: 50 nM ligand
Description: The growth medium was removed and replaced with a loading buffer containing a calcium-sensitive dye (FLIPR Calcium 6 assay kit from Molecular Devices, San Jose, CA, USA). After incubated at 37 °C for 30 min, the plates were placed in a FlexStation 3 microplate reader (Molecular Devices). Tested ligands (50 nM) or DPBS (negative control) were added to the cells and the fluorescent signals were acquired for 2 min. Agonistic/antagonistic properties of the tested ligands were determined based on the relative fluorescent unit (RFU = max – min) of their generated fluorescent signals.

GRPR [4] = target: T1, GRPR; conditions: vs Ac-Bombesin(7–14); ref Horwell et al. 1996; cited from earlier work

T1 sequence (P30550 whole entry): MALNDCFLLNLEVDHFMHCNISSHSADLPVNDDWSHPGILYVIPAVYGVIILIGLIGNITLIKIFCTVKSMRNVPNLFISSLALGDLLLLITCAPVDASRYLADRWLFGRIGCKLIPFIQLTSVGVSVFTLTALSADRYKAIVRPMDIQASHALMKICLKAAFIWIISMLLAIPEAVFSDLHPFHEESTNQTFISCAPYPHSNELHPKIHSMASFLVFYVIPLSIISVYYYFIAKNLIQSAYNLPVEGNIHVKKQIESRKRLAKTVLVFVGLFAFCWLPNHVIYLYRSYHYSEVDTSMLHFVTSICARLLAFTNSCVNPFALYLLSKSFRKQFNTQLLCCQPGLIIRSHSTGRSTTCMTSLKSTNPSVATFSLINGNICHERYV

Compound: ^68Ga-DOTA-Pip-D-Phe^6-Gln^7-Trp^8-Ala^9-Val^10-Gly^11-His^12-Leu^13-Thz^14-NH2 [[^68Ga]Ga-TacBOMB2]
- Ki (GRPR [1]): 7.62 nM
- Uptake in PC-3 tumor [2]: 5.95 %ID/g
- Uptake in adrenal glands [2]: 0.52 ± 0.11 %ID/g
- Uptake in blood [2]: 0.39 ± 0.12 %ID/g
- Uptake in bone [2]: 0.26 ± 0.11 %ID/g
- Uptake in brain [2]: 0.03 ± 0.01 %ID/g
- Uptake in fat [2]: 0.10 ± 0.03 %ID/g
- Uptake in heart [2]: 0.14 ± 0.02 %ID/g
- Uptake in kidneys [2]: 2.43 ± 0.16 %ID/g
- Uptake in liver [2]: 0.29 ± 0.13 %ID/g
- Uptake in lungs [2]: 0.39 ± 0.10 %ID/g
- Uptake in muscle [2]: 0.13 ± 0.08 %ID/g
- Uptake in pancreas [2]: 1.30 ± 0.14 %ID/g
- Uptake in small intestine [2]: 0.60 ± 0.12 %ID/g
- Uptake in spleen [2]: 0.27 ± 0.10 %ID/g
- Uptake in stomach [2]: 0.54 ± 0.27 %ID/g
- Uptake in testes [2]: 0.16 ± 0.05 %ID/g

- Ca^2+ efflux (relative fluorescence units, RFU = max – min) (GRPR [3]): 521 ± 43.7 RFUs
Compound: CC(C)C[C@H](NC(=O)[C@H](Cc1c[nH]cn1)N(C)C(=O)CNC(=O)[C@@H](NC(=O)[C@H](C)NC(=O)[C@H](Cc1c[nH]c2ccccc12)NC(=O)[C@H](CCC(N)=O)NC(=O)[C@@H](Cc1ccccc1)NC(=O)CN1CCC(NC(=O)CN2CCN(CC(=O)O)CCN(CC(=O)O)CCN(CC(=O)O)CC2)CC1)C(C)(C)C)C(=O)N1CSC[C@H]1C(N)=O [Ga-LW01110, Ga-DOTA-Pip-D-Phe-Gln-Trp-Ala-Tle-Gly-NMe-His-Leu-Thz-NH2]

Compound: Ac-[NMe-Gly^11]Bombesin(7–14)
- Reduction in GRPR binding affinity caused by NMe-Gly^11 substitution (GRPR [4]): > 30 fold

Compound: Ga-DOTA-Pip-D-Phe-Gln-7-F-Trp-Ala-Val-Gly-His-Leu-Thz-NH2 [Ga-LW02021]
- Ca^2+ efflux (relative fluorescence units, RFU = max – min) (GRPR [3]): 178 ± 53.7 RFUs

- Ca^2+ efflux (relative fluorescence units, RFU = max – min) (GRPR [3]): 242 ± 44.1 RFUs
Compound: CC(C)C[C@H](NC(=O)[C@H](Cc1c[nH]cn1)N(C)C(=O)CNC(=O)[C@@H](NC(=O)[C@H](C)NC(=O)[C@H](Cc1c[nH]c2c(F)cccc12)NC(=O)[C@H](CCC(N)=O)NC(=O)[C@@H](Cc1ccccc1)NC(=O)CN1CCC(NC(=O)CN2CCN(CC(=O)O)CCN(CC(=O)O)CCN(CC(=O)O)CC2)CC1)C(C)(C)C)C(=O)N1CSC[C@H]1C(N)=O [Ga-LW02040, Ga-DOTA-Pip-D-Phe-Gln-7-F-Trp-Ala-Tle-Gly-NMe-His-Leu-Thz-NH2]
